Data taken from EP2970215B1, “PYRROLIDINE DERIVATIVES, PHARMACEUTICAL COMPOSITIONS CONTAINING THEM, AND THEIR USE IN THERAPY” (AbbVie Deutschland GmbH & Co. KG, priority 2013, dated 2014).

Biological target: T1, human GlyT1c transporter (Homo sapiens, UniProt P48067)
T1 construct: expressed in transfected cells; host or cells: CHO cells (recombinant; line hGlyT1c_5_CHO is named for the uptake assay)
T1 sequence (P48067 1-706): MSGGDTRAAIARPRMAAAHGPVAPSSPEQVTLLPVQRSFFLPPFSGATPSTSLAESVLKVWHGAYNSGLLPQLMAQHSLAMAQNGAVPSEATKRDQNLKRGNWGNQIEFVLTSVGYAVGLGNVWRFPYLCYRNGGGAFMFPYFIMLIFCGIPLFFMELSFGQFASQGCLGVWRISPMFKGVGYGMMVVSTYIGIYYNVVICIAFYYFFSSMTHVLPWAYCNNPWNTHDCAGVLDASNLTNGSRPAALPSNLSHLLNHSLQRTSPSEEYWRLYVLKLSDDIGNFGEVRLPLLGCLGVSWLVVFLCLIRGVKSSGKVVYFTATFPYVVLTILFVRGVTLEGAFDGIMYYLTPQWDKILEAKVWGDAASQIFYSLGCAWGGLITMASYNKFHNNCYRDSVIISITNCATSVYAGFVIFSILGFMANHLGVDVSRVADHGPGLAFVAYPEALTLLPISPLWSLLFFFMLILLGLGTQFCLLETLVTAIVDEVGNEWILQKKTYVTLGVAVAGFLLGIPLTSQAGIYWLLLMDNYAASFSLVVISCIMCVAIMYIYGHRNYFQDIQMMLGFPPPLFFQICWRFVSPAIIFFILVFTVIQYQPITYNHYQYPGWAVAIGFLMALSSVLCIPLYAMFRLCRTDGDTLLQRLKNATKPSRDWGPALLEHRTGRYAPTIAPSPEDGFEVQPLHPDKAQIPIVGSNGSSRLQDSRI
Assay: Radioligand binding assay using recombinant CHO cell membranes expressing human GlyT1
Conditions: radioligand binding to human GlyT1c transporter-expressing membranes
Text: 2. Radioligand binding assays using recombinant CHO cell membranes expressing human GlyT1: […]

Compound	Ki [nM]
Cn1cnc(S(=O)(=O)N2C[C@H](NC(=O)Nc3ccccc3F)[C@@H](c3ccc(F)cc3)C2)c1 [Example 702, 1-(2-fluorophenyl)-3-{(3R,4S)-4-(4-fluorophenyl)-1-[(1-methyl-1H-imidazol-4-yl)sulfonyl]pyrrolidin-3-yl}urea]	≤ 10000
Cn1cnc(S(=O)(=O)N2C[C@@H](Nc3ccc(F)c(Cl)c3)[C@H](c3ccc(F)cc3)C2)c1 [Example 387, (3S,4R)-N-(3-chloro-4-fluorophenyl)-4-(4-fluorophenyl)-1-[(1-methyl-1H-imidazol-4-yl)sulfonyl]pyrrolidin-3-amine]	≤ 10000
Cc1cc2c(cc1S(=O)(=O)N1CC(Nc3ccc(F)c(F)c3)C(c3ccccc3)C1)OCC(=O)N2 (stereo not shown) [Example 481, 7-({3-[(3,4-difluorophenyl)amino]-4-phenylpyrrolidin-1-yl}sulfonyl)-6-methyl-2H-1,4-benzoxazin-3(4H)-one]	≤ 10000
Cn1cnc(S(=O)(=O)N2C[C@@H](Nc3ccc(Cl)c(C(F)(F)F)c3)[C@H](c3ccc(F)cc3)C2)c1 (relative stereo) [Example 172, trans-N-[4-chloro-3-(trifluoromethyl)phenyl]-4-(4-fluorophenyl)-1-[(1-methyl-1H-imidazol-4-yl)sulfonyl]pyrrolidin-3-amine]	≤ 100
O=S(=O)(N1CCOCC1)N1CC(Nc2ccc(F)c(F)c2)C(c2ccccc2)C1 (stereo not shown) [Example 521, N-(3,4-difluorophenyl)-1-(morpholin-4-ylsulfonyl)-4-phenylpyrrolidin-3-amine]	≤ 10000
Cc1cc(C#N)cc(N[C@@H]2CN(S(=O)(=O)c3cn(C)cn3)C[C@H]2c2ccccc2)c1 (relative stereo) [Example 101, 3-methyl-5-({trans-1-[(1-methyl-1H-imidazol-4-yl)sulfonyl]-4-phenylpyrrolidin-3-yl}amino)benzonitrile]	≤ 1000
O=c1[nH]c2cc(S(=O)(=O)N3CC(Nc4ccc(F)c(F)c4)C(c4ccccc4)C3)ccc2o1 (stereo not shown) [Example 514, 5-({3-[(3,4-difluorophenyl)amino]-4-phenylpyrrolidin-1-yl}sulfonyl)-1,3-benzoxazol-2(3H)-one]	≤ 10000
CCCCCNC(=O)[C@@H]1CN(S(=O)(=O)c2cn(C)cn2)C[C@H]1c1ccc(F)cc1 (relative stereo) [Example 626, Trans-4-(4-fluorophenyl)-1-[(1-methyl-1H-imidazol-4-yl)sulfonyl]-N-pentylpyrrolidine-3-carboxamide]	≤ 1000
Cc1nc(C)c(CN[C@H]2CN(S(=O)(=O)c3cn(C)cn3)C[C@@H]2c2ccccc2)s1 [Example 441, (3R,4S)-N-[(2,4-dimethyl-1,3-thiazol-5-yl)methyl]-1-[(1-methyl-1H-imidazol-4-yl)sulfonyl]-4-phenylpyrrolidin-3-amine]	≤ 10000
COC(=O)CCCC(=O)N[C@H]1CN(S(=O)(=O)c2cn(C)cn2)C[C@@H]1c1ccc(F)cc1 [Example 662, methyl 5-({(3R,4S)-4-(4-fluorophenyl)-1-[(1-methyl-1H-imidazol-4-yl)sulfonyl]pyrrolidin-3-yl}amino)-5-oxopentanoate]	≤ 10000
Cn1cnc(S(=O)(=O)N2C[C@@H](Nc3cccc(C(F)(F)F)n3)[C@H](c3ccccc3F)C2)c1 (relative stereo) [Example 203, N-{trans-4-(2-fluorophenyl)-1-[(1-methyl-1H-imidazol-4-yl)sulfonyl]pyrrolidin-3-yl}-6-(trifluoromethyl)pyridin-2-amine]	≤ 10000
Cn1cnc(S(=O)(=O)N2C[C@H](Nc3ncnc4[nH]ccc34)[C@@H](c3ccccc3)C2)c1 [Example 406, N-{(3R,4S)-1-[(1-methyl-1H-imidazol-4-yl)sulfonyl]-4-phenylpyrrolidin-3-yl}-7H-pyrrolo[2,3-d]pyrimidin-4-amine]	≤ 10000

Next, values leading:

Ki [nM]	Compound
≤ 1000	Cn1cnc(S(=O)(=O)N2C[C@@H](C(=O)c3ccc(Cl)c(Cl)c3)[C@H](c3ccc(F)cc3)C2)c1 (relative stereo) [Example 359, (3,4-Dichlorophenyl){trans-4-(4-fluorophenyl)-1-[(1-methyl-1H-imidazol-4-yl)sulfonyl]pyrrolidin-3-yl} methanone]
≤ 100	Cn1cnc(S(=O)(=O)N2C[C@@H](COc3cccc(F)c3)[C@H](c3ccc(F)cc3)C2)c1 (relative stereo) [Example 251, 4-{[trans-3-[(3-fluorophenoxy)methyl]-4-(4-fluorophenyl)pyrrolidin-1-yl]sulfonyl}-1-methyl-1H-imidazole]
≤ 10	CCCCCCO[C@H]1CN(S(=O)(=O)c2cn(C)cn2)C[C@@H]1c1ccc(F)cc1 [Example 625, 4-{[(3S,4R)-3-(4-fluorophenyl)-4-(hexyloxy)pyrrolidin-1-yl]sulfonyl}-1-methyl-1H-imidazole]
≤ 100	Cc1cc(N[C@H]2CN(S(=O)(=O)c3cn(C)cn3)C[C@@H]2c2ccccc2)ccc1Cl [Example 669, (3R,4S)-N-(4-chloro-3-methylphenyl)-1-[(1-methyl-1H-imidazol-4-yl)sulfonyl]-4-phenylpyrrolidin-3-amine]
≤ 1000	Cn1cnc(S(=O)(=O)N2CC(Nc3cccc(OC(F)(F)F)c3)C(C3CCN(C4CC4)CC3)C2)c1 (stereo not shown) [Example 678, -4-(1-cyclopropylpiperidin-4-yl)-1-[(1-methyl-1H-imidazol-4-yl)sulfonyl]-N-[3-(trifluoromethoxy)phenyl]pyrrolidin-3-amine]
≤ 10	CCCCC(F)(F)CN[C@H]1CN(S(=O)(=O)c2cn(C)cn2)C[C@@H]1c1ccc(F)cc1 [Example 733, (3R,4S)-N-(2,2-difluorohexyl)-4-(4-fluorophenyl)-1-[(1-methyl-1H-imidazol-4-yl)sulfonyl]pyrrolidin-3-amine]
≤ 1000	Cc1ccc(-c2ncc(CN[C@H]3CN(S(=O)(=O)c4cn(C)cn4)C[C@@H]3c3ccccc3)s2)cc1 [Example 572, (3R,4S)-1-[(1-methyl-1H-imidazol-4-yl)sulfonyl]-N-{[2-(4-methylphenyl)-1,3-thiazol-5-yl]methyl}-4-phenylpyrrolidin-3-amine]
≤ 10	Cn1cnc(S(=O)(=O)N2C[C@@H](Nc3cccc(Cl)c3)[C@H](c3ccc(F)cc3)C2)c1 (relative stereo) [Example 94, trans-N-(3-chlorophenyl)-4-(4-fluorophenyl)-1-[(1-methyl-1H-imidazol-4-yl)sulfonyl]pyrrolidin-3-amine]
≤ 100	CCCCCCN[C@@H]1CN(S(=O)(=O)c2cn(C)nn2)C[C@H]1c1ncccc1F (relative stereo) [Example 811, Trans-4-(3-fluoropyridin-2-yl)-N-hexyl-1-[(1-methyl-1H-1,2,3-triazol-4-yl)sulfonyl]pyrrolidin-3-amine]
≤ 1000	Cn1cnc(S(=O)(=O)N2C[C@H](NCc3nc(Br)cs3)[C@@H](c3ccccc3)C2)c1 [Example 472, (3R,4S)-N-[(4-bromo-1,3-thiazol-2-yl)methyl]-1-[(1-methyl-1H-imidazol-4-yl)sulfonyl]-4-phenylpyrrolidin-3-amine]
≤ 1000	Cn1cnc(S(=O)(=O)N2C[C@@H](C(=O)Nc3cc(Cl)cc(Cl)c3)[C@H](c3ccc(F)cc3)C2)c1 (relative stereo) [Example 244, Trans-N-(3,5-dichlorophenyl)-4-(4-fluorophenyl)-1-[(1-methyl-1H-imidazol-4-yl)sulfonyl]pyrrolidine-3-carboxamide]
≤ 1000	CCCOCCN[C@H]1CN(S(=O)(=O)c2cn(C)cn2)C[C@@H]1c1ccccc1 [Example 609, (3R,4S)-1-[(1-methyl-1H-imidazol-4-yl)sulfonyl]-4-phenyl-N-(2-propoxyethyl)pyrrolidin-3-amine]
≤ 100	Cn1cnc(S(=O)(=O)N2C[C@@H](NC(=O)c3cccc(C(F)(F)F)c3Cl)[C@H](c3ccccc3Cl)C2)c1 (relative stereo) [Example 115, 2-chloro-N-{trans-4-(2-chlorophenyl)-1-[(1-methyl-1H-imidazol-4-yl)sulfonyl]pyrrolidin-3-yl}-3-(trifluoromethyl)benzamide]
≤ 100	Cn1cnc(S(=O)(=O)N2C[C@@H](NCc3cccc(C(F)(F)F)c3Cl)[C@H](c3ccc(F)cc3)C2)c1 (relative stereo) [Example 149, trans-N-[2-chloro-3-(trifluoromethyl)benzyl]-4-(4-fluorophenyl)-1-[(1-methyl-1H-imidazol-4-yl)sulfonyl]pyrrolidin-3-amine]
≤ 100	Cn1cnc(S(=O)(=O)N2C[C@H](Nc3cc(-c4cccnc4)ccn3)[C@@H](c3ccc(F)cc3)C2)c1 [Example 750, N-{(3R,4S)-4-(4-fluorophenyl)-1-[(1-methyl-1H-imidazol-4-yl)sulfonyl]pyrrolidin-3-yl}-3,4'-bipyridin-2'-amine]

Same assay, conditions: radioligand binding, recombinant CHO cell membranes expressing human GlyT1c

Compound	Ki [nM]
Cn1cnc(S(=O)(=O)N2C[C@@H](Nc3ccc(F)c(OC(F)(F)F)c3)[C@H](C3CCOC3)C2)c1 (relative stereo) [Example 831, trans -N-[4-fluoro-3-(trifluoromethoxy)phenyl]-1-[(1-methyl-1 H-imidazol-4-yl)sulfonyl] -4-(tetrahydrofuran-3-yl)pyrrolidin-3-amine]	≤ 1000
